These results are taken from patent US11084829B2, “Ubiquitin-specific-processing protease 7 (USP7) modulators and uses thereof” (RAPT THERAPEUTICS, INC., priority 2018, dated 2021).

SMILES strings stand for the structures.

In this test the target is USP7 (Homo sapiens, UniProt Q93009). The experiment in a line: USP7 inhibitory potency (IC50). Type of test: biochemical. Here is the method:
Activity for compounds described herein is provided in Table 2, wherein potency levels are provided as follows: (Potency: USP7 IC50: A<0.01 μM; B=0.01-0.1 μM; C=>0.1 μM.

Chain of USP7 (Q93009 whole entry): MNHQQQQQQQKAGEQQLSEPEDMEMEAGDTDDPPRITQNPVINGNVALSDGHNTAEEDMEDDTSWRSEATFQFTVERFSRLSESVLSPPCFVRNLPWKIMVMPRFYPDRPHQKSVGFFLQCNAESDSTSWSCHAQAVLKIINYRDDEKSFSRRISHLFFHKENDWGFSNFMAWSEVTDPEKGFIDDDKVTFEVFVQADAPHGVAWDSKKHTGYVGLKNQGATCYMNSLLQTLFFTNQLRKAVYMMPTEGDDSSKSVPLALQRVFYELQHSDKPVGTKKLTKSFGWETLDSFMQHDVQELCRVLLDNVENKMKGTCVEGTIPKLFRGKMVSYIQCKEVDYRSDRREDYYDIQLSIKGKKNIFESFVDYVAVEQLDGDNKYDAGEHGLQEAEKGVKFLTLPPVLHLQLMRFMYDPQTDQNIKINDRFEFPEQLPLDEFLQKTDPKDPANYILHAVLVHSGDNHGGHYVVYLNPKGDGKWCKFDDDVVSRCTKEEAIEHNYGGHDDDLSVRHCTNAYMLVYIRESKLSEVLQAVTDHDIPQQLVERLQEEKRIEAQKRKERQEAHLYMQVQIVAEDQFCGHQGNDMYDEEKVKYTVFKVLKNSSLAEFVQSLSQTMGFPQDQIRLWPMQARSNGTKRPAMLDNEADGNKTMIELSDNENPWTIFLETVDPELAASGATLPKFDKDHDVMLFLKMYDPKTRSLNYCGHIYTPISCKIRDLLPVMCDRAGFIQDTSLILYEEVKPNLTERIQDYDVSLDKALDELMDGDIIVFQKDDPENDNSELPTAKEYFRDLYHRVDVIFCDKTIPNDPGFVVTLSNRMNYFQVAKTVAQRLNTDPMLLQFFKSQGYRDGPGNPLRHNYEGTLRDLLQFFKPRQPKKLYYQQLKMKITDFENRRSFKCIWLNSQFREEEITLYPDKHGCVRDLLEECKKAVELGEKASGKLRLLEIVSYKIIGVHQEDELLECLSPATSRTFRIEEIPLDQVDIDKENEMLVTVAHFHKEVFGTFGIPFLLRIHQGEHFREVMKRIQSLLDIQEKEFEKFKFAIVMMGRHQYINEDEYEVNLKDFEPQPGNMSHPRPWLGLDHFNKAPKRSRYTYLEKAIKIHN

Broadly, the IC50 is the midpoint of a concentration-inhibition curve. A high value points to weaker potency. Take `Cc1cc(Cl)cc(-c2ncnc3cc(CN4C(=O)OC[C@@H]4CO)sc23)c1C[C@@H]1CNCC(C)(C)O1` [Example 268, (S)-3-((4-(5-chloro-2-(((R)-6,6-dimethylmorpholin-2-yl)methyl)-3-methylphenyl)thieno[3,2-d]pyrimidin-6-yl)methyl)-4-(hydroxymethyl)oxazolidin-2-one]: the IC50 was below 10 nM.
The molecule `COCc1cc2ncnc(-c3cc(Cl)cc(C)c3C[C@@H]3CNCC(C)(C)O3)c2s1` [Example 269, (R)-6-(4-chloro-2-(6-(methoxymethyl)thieno[3,2-d]pyrimidin-4-yl)-6-methylbenzyl)-2,2-dimethylmorpholine] had an IC50 above 100 nM.
On to `Cc1cc(Cl)cc(-c2ncnc3cc(CN4C(=O)CCNC4=O)sc23)c1C[C@@H]1CNCC(C)(C)O1` [Example 270, (R)-3-((4-(5-chloro-2-((6,6-dimethylmorpholin-2-yl)methyl)-3-methylphenyl)thieno[3,2-d]pyrimidin-6-yl)methyl)dihydropyrimidine-2,4(1H,3H)-dione], for which the half-inhibitory concentration (IC50) is below 10 nM.
Next, `Cc1cc(Cl)cc(-c2ncnc3cc(CN4C(=O)CCN(CCO)C4=O)sc23)c1C[C@@H]1CNCC(C)(C)O1` [Example 271, (R)-3-((4-(5-chloro-2-((6,6-dimethylmorpholin-2-yl)methyl)-3-methylphenyl)thieno[3,2-d]pyrimidin-6-yl)methyl)-1-(2-hydroxyethyl)dihydropyrimidine-2,4(1H,3H)-dione]: below 10 nM; `Cc1cc(Cl)cc(-c2ncnc3cc(CN4C(=O)CN(CC(F)(F)F)C4=O)sc23)c1CN1[C@@H](C)CNC[C@@H]1C` [Example 272, 3-((4-(5-chloro-2-(((2S,6S)-2,6-dimethylpiperazin-1-yl)methyl)-3-methylphenyl)thieno[3,2-d]pyrimidin-6-yl)methyl)-1-(2,2,2-trifluoroethyl)imidazolidine-2,4-dione]: below 10 nM.
In turn, `Cc1cc(Cl)cc(-c2ncnc3cc(CN4C(=O)CNC4=O)sc23)c1C[C@@H]1CNCC(C)(C)O1` [Example 273, (R)-3-((4-(5-chloro-2-((6,6-dimethylmorpholin-2-yl)methyl)-3-methylphenyl)thieno[3,2-d]pyrimidin-6-yl)methyl)imidazolidine-2,4-dione] registered an IC50 below 10 nM.
Take `Cc1cc(Cl)cc(-c2ncnc3cc(CN4C(=O)CN(C)C4=O)sc23)c1C[C@@H]1CNCC(C)(C)O1` [Example 275, (R)-3-((4-(5-chloro-2-((6,6-dimethylmorpholin-2-yl)methyl)-3-methylphenyl)thieno[3,2-d]pyrimidin-6-yl)methyl)-1-methylimidazolidine-2,4-dione]: the IC50 was below 10 nM.
`Cc1cc(Cl)cc(-c2ncnc3cc(CN4C(=O)CN(CCO)C4=O)sc23)c1C[C@@H]1CNCC(C)(C)O1` [Example 276, (R)-3-((4-(5-chloro-2-((6,6-dimethylmorpholin-2-yl)methyl)-3-methylphenyl)thieno[3,2-d]pyrimidin-6-yl)methyl)-1-(2-hydroxyethyl)imidazolidine-2,4-dione] registered an IC50 below 10 nM.
`Cc1cc(Cl)cc(-c2ncnc3cc(CN4C(=O)CN(CC(F)F)C4=O)sc23)c1CN1[C@@H](C)CNC[C@@H]1C` [Example 277, 3-((4-(5-chloro-2-(((2S,6S)-2,6-dimethylpiperazin-1-yl)methyl)-3-methylphenyl)thieno[3,2-d]pyrimidin-6-yl)methyl)-1-(2,2-difluoroethyl)imidazolidine-2,4-dione]: the IC50 was below 10 nM.
